What was measured:
hDcp2 [1] = target: T1, hDcp2 (Homo sapiens, UniProt Q8IU60); assay: In vitro RNA decapping assay with recombinant hDcp2; assay type: biochemical; conditions: capped 32P-labeled short RNA, recombinant hDcp2, anion exchange HPLC (FIG. 6)
Protocol: Dcp2 activity was measured with capped 48-nt oligonucleotides as substrates, a truncated form of luciferase mRNA (48 nucleotides). GST-hDcp2 was expressed in Escherichia coli and purified as described by Z. Wang et al., “The hDcp2 protein is a mammalian mRNA decapping enzyme,” Proc. Natl. Acad. Sci. U.S.A., vol. 99, pp. 12663-12668 (2002). Capped oligonucleotides were first subjected to digestion with GST-hDcp2 at 37° C. for 2 h in decapping buffer (10 mM Tris-HCl, pH 7.5, 100 mM potassium acetate, 2 mM magnesium acetate, 0.5 mM MnCl2, 2 mM dithiothreitol, and 0.1 mM spermine). See C. Piccirillo et al., “Functional characterization of the mammalian mRNA decapping enzyme hDcp2,” RNA, vol. 9, pp. 1138-1147 (2003). The reaction mixture was then extracted once with an equal volume of phenol and twice with chloroform, and RNA was precipitated with ethanol. Products of the decapping reaction were further digested with a cocktail of ribonucleases (RiboShredder; Epicentre) at 37° C. for 1 h. The products were resolved by anion-exchange HPLC on a 4.6×250-mm Partisil 10SAX/25 column (Whatman). The gradient consisted of water for 1 min, a linear gradient to 112 mM KH2PO4, pH 4.5, for 20 min, a linear gradient of 112-450 mM KH2PO4 for 15 min, a linear gradient of 450 mM to 1.5 M KH2PO4 for 15 min, and isocratic elution at 1.5 M of KH2PO4 for 9 min, all at a flow rate 1 ml/min.
We tested oligonucleotides capped with either of S-ARCAs for hydrolysis by recombinant hDcp2 to test whether mRNA capped with the various diastereomers of m2^7,2′-OGpppsG and m2^7,2′-OGppspG would differ in their sensitivity to cleavage by Dcp1/Dcp2. See generally Z. Wang et al., “The hDcp2 protein is a mammalian mRNA decapping enzyme,” Proc. Natl. Acad. Sci. U.S.A., vol. 99, pp. 12663-12668 (2002), and Z. Wang et al., “An mRNA Stability Complex Functions with Poly(A)-Binding Protein To Stabilize mRNA In Vitro”, Mol. Cell. Biol., vol. 19, pp. 4552-4560 (1999). Cap analogs used were initially unlabeled, so to follow the products of the digestion reaction we synthesized capped oligonucleotides in the presence of [α-^32P]GTP and a DNA template in which G was the first ribonucleotide specified after the promoter. The oligonucleotides capped with either of the S-ARCAs were subjected to Dcp2 digestion in vitro, after which the products were further digested with a cocktail of ribonucleases (RiboShredder from Epicenter). Any nucleotide on the 5′ side of a G residue acquired a ^32P-labeled 3′-phosphate group after ribonuclease digestion by nearest-neighbor transfer. Anion exchange chromatography was then used to resolve the labeled 3′-nucleoside monophosphates (3′-NMP*), at internal positions in the RNA, from labeled 5′-terminal products (FIG. 6). The latter comprise p3 Gp* derived from uncapped transcripts and m2^7,2′-OGp3 Gp* (when m2^7,2′-OGp3G was used), or pGp* resulting from capped RNA resistant or nonresistant to enzymatic cleavage, respectively. All cap analogs used were ARCAs, which ensured that they were incorporated into RNA exclusively in the correct orientation. This further guaranteed that only one 5′-terminal product (m2^7,2′-OGp3 Gp*) was observed upon ribonuclease treatment. Uncapped RNA is not a substrate for Dcp2, which explains why p3 Gp* product was observed after Dcp2 digestion.
See E. Grudzien et al., “Differential inhibition of mRNA degradation pathways by novel cap analogs,” J. Biol. Chem., vol. 281, pp. 1857-1867 (2006).

hDcp2 [2] = target: T1, hDcp2; conditions: Grudzien et al. 2006; cited from earlier work
murine eIF4E (28-217) = target: T2, murine eIF4E (28-217) (Mus musculus, UniProt P63073); assay: Binding affinities for eIF4E by fluorescence quenching; conditions: murine eIF4E (28-217)
T2 construct: (28-217) to phosphorothioate cap analogs, as determined
T2 sequence (P63073 28-217): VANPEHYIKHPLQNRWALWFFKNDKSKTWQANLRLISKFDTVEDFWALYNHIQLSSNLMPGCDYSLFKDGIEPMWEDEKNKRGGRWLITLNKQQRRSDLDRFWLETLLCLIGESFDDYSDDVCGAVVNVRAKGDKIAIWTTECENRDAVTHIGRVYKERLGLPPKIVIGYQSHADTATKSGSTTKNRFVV
Protocol: Binding affinities of S analogs for murine eIF4E were determined by fluorescence quenching. Fluorescence titration measurements were carried out on an LS-50B spectrofluorometer (Perkin Elmer Co.) in 50 mM HEPES/KOH (pH 7.2), 100 mM KCl, 0.5 mM EDTA, 1 mM DTT at 20.0±0.2° C. Aliquots of 1 μl increasing concentration of cap analogue solutions were added to 1.4 ml of […] solutions. Fluorescence intensities (excitation at 280 nm with 2.5 nm bandwidth and detection at 337 nm with 4 nm bandwidth and 290 nm cut-off filter) were corrected taking into account sample dilution and the inner filter effect. Equilibrium association constants (KAS) were determined by fitting the theoretical dependence of the fluorescence intensity on the total concentration of cap analogue to the experimental data points according to equation described previously (See A. Niedzwiecka et al., “Biophysical studies of eIF4E cap-binding protein: recognition of mRNA 5′ cap structure and synthetic fragments of eIF4G and 4E-BP1 proteins,” J. Mol. Biol., vol. 319, pp. 615-635 (2002)). The concentration of protein was fitted as a free parameter of equilibrium equation showing amount of “active” protein. The final KAS was calculated as a weighted average of three to ten independent titrations, with the weights taken as the reciprocals of the numerical standard deviations squared. Numerical nonlinear least-squares regression analysis was performed using ORGIN 6.0 (Microcal Software Inc., USA). The Gibbs free energy of binding was calculated from the KAS value according to the standard equation ΔG°=−RTlnKAS.

HC11 cells = assay: Translational efficiency of capped luciferase mRNA in HC11 cells; assay type: cell-based, mouse; conditions: Luc-A60 mRNA capped with the analog in HC11 cells, relative to m^7Gp3G-capped mRNA
Protocol: Two methods, electroporation and nucleoporation, were used to deliver RNA into cells. In case of electroporation, 5 μg of RNA were introduced into 10^7 HC11 cells in a total volume 400 μl of serum-reduced RPMI 1640 medium in a Gene pulser cuvette (4 mm gap) with a Bio-Rad Genepulser™ set at 0.22 kV and 960 μF. Following discharge, the cells were washed twice with PBS, centrifuged for 2 min 300×g at room temperature, resuspended in prewarmed complete medium, and placed at 37° C. Nucleoporation was performed with an Amaxa Nucleofector II (Amaxa Biosystems) in accordance with manufacture's recommendations. One microgram of RNA was introduced into 10^6 HC11 cells with Nucleofector Solution V and the set of recommended regimens (program T-024).
For measurement of translational efficiency, cells were divided into several Eppendorf tubes, placed in a water bath at 37° C., and shaken. For measurement of mRNA stability, cells were distributed into 35-mm cell culture dishes and placed at 37° C. in a 5% CO2 humidified atmosphere. Cells were harvested at various times and washed twice with PBS.
For cytoplasmic RNA extraction, 2×10^5 cells were lysed in 175 μl of lysis buffer (50 mM Tris-HCl, pH 8.0, 140 mM NaCl, 1.5 mM MgCl2, 0.5% (v/v) Igepal (Sigma), and 1 mM dithiothreitol). RNAs were further purified using the RNeasy mini kit. For protein extraction, 2×10^5 cells were lysed in 200 μl of Luciferase Cell Culture Lysis Reagent (Promega). Luciferase activity of cell extracts was measured according to the manufacturer's protocol (Promega).
We also determined the translational efficiency in cultured cells for luciferase mRNA capped with S-ARCAs. This involved two measurements conducted at various times following nucleoporation—luciferase activity measured by luminometry in cleared cell lysates, and Luc-A60 levels measured by real-time PCR. Luciferase activity was normalized by the amount of luciferase mRNA that had been delivered into cells. To determine the amount of RNA present in the cells at a time immediately after nucleoporation, i.e., before any decay had occurred, cells were harvested at various times between 2 to 8 h post-nucleoporation, and cytoplasmic RNA was extracted. The amount of luciferase mRNA was measured by real time PCR using primers that amplify sequences near the 5′-end. Luciferase mRNA remaining at each time point was plotted as log10 ([RNA]) versus time to determine t1/2. The curve was extrapolated to 0 h, and the amount of RNA delivered into the cells was calculated. We defined conditions under which the accumulation of luciferase was linear with time, after an initial lag period of ˜30 min for recruitment of mRNA to ribosomes, completing the first polypeptide chain, and release of luciferase into the cytosol.

DcpS [3] = target: T3, DcpS (Homo sapiens, UniProt Q96C86); assay: Enzymatic hydrolysis by human DcpS; assay type: biochemical; design: key: the analogs assigned as resistant remained completely undigested under the applied conditions; the analogs assigned as hydrolyzed were hydrolyzed by DcpS with efficiency comparable to the respective unmodified parent compound; conditions: conditions giving complete degradation of unmodified parent within 40-90 min, RP HPLC
T3 sequence (Q96C86 1-337): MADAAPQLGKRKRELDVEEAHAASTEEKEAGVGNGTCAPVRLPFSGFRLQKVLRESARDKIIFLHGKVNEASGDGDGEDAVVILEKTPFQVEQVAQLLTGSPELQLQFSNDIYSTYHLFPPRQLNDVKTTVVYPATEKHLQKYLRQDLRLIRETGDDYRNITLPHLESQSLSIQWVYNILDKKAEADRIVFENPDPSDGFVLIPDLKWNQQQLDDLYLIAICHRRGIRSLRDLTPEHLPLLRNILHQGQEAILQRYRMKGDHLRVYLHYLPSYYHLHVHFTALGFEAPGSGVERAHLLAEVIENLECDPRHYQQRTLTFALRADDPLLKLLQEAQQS
Protocol: (§1) Human and nematode DcpS were expressed in Escherichia coli according to the procedures described previously (L. S. Cohen et al., “Nematode m7 GpppG and m3(2,2,7)GpppG decapping: activities in Ascaris embryos and characterization of C. elegans scavenger DcpS,” RNA, vol. 10, pp. 1609-1624 (2004)). Both proteins were stored at −80° C. in 20 mM Tris buffer, pH 7.5, containing 50 mM KCl, 0.2 mM EDTA, 1 mM DTT, 0.5 mM PMSF, and 20% glycerol. An appropriate cap analog at 1 mM concentration was treated with 5.0 or 7.0 μl of DcpS (from human or C. elegans, respectively) in 500 μl of 50 mM TRIS buffer, pH=7.9, containing 20 mM of MgCl2 and 60 mM of (NH4)2SO4 at 37° C. for 60-90 min. Every 15-20 min a 100 μl sample was collected from the reaction mixture and deactivated by incubation in 90° C. for 3 min. Collected samples were analyzed without further treatment by analytical RP HPLC using a linear gradient of methanol in 0.1 M KH2PO4, pH=6.0, from 0-50% within 15 min and UV-detection at 260 nm.
(§2) The new series of S-analogs were subjected to in vitro enzymatic hydrolysis catalyzed by DcpS from both human and C. elegans sources. In all experiments, the corresponding unmodified cap analog was used as a positive control, i.e., m^7GpppG for non-ARCA S-analogs and m2^7,2′-OGpppG for S-ARCAs. The amount of DcpS enzyme was optimized to provide complete degradation of the control substrate within 40-90 min. The samples collected from reaction mixtures at various time intervals were analyzed by RP HPLC (as described in Materials and Methods).
(§3) In Table 4, cap analogs at 4 μM concentration were subjected to enzymatic digestion by DcpS in conditions leading to complete degradation of the unmodified parent compound (i.e. m^7GpppG for non-ARCA S-analogs and m2^7,2′-OGpppG for ARCAs) within 40-90 min. Samples collected from reaction mixtures at various time intervals were analysed by RP HPLC with UV detection at 260 nm as described in Materials and Methods. […] The result was unchanged even if the reaction time was extended to 24 h, various amounts of enzyme were used, and composition of the reaction buffer was modified.

DcpS [4] = target: T4, DcpS (Caenorhabditis elegans, UniProt G5EFS4); assay: Enzymatic hydrolysis by C. elegans DcpS; assay type: biochemical; design: key: the analogs assigned as resistant remained completely undigested under the applied conditions; the analogs assigned as hydrolyzed were hydrolyzed by DcpS with efficiency comparable to the respective unmodified parent compound; conditions: conditions giving complete degradation of unmodified parent within 40-90 min, RP HPLC
T4 sequence (G5EFS4 1-311): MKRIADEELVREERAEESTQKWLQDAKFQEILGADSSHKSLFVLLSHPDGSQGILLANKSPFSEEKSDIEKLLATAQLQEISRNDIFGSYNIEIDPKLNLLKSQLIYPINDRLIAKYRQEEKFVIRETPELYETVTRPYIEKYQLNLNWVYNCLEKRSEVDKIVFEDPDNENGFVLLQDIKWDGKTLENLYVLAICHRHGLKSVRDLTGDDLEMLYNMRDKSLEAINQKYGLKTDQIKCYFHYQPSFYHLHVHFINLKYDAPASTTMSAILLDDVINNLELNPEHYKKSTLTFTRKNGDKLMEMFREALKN
Protocol: as §1, §2, §3

CO[C@H]1[C@@H](O)[C@H](n2c[n+](C)c3c(=O)[nH]c(N)nc32)O[C@@H]1COP(=O)(O)OP(=O)(O)CP(=O)(O)OC[C@H]1O[C@@H](n2cnc3c(=O)[nH]c(N)nc32)[C@H](O)[C@@H]1O [m2^7,3′-OGppCH2pG, reference compound]
hydrolysis of capped oligonucleotide by hDcp2 (hDcp2 [1]): resistant
hydrolysis of capped mRNA by recombinant human Dcp2 in vitro (hDcp2 [2]): resistant to hydrolysis

Cn1c[n+]([C@@H]2O[C@H](COP(=O)(O)OP(=O)([O-])OP(=O)(O)OC[C@H]3O[C@@H](n4cnc5c(=O)[nH]c(N)nc54)[C@H](O)[C@@H]3O)[C@@H](O)[C@H]2O)c2nc(N)[nH]c(=O)c21 [m^7GpppG, reference compound]
ΔG° (murine eIF4E (28-217); binding free energy calculated from KAS): -9.35 ± 0.02 kcal/mol
KAS (murine eIF4E (28-217); equilibrium association constant, fluorescence quenching): 9.4 ± 0.4 µM⁻¹
Relative translational efficiency (HC11 cells): 1.00
Resistance to enzymatic hydrolysis by DcpS (human) (DcpS [3]): hydrolyzed
Resistance to enzymatic hydrolysis by DcpS (from C. elegans) (DcpS [4]): hydrolyzed

From patent US8153773B2, “Synthesis and use of anti-reverse phosphorothioate analogs of the messenger RNA cap” (Board of Supervisors of Louisiana State University and …, priority 2007, dated 2012)
